We go through one compound from patent publication EP0953345A1, “Use of at least a hydroxystilbene as an agent for decreasing micro-organism adhesion” (priority 1998, dated 1999).

The assay has as its system Staphylococcus epidermis. Description: ex vivo bacteria/skin adhesion model on intact human skin explants (3H-thymidine-labelled bacteria, liquid scintillation counting). The class given is cell-based. From the text: L'activité du resvératrol sur l'adhésion de micro-organismes sur la peau ou sur les muqueuses humaines est testée sur un modèle d'adhésion bactéries/peau, tel que décrit ci-après.
Ce modèle d'adhésion bactéries/peau ex vivo est basé sur l'utilisation d'explants de peau humaine intacte montée en sandwich entre une plaque 96 puits sans fond et un support en Plexiglas. Les puits individualisés étanches permettent de tester dans un format standard l'effet du resvératrol sur l'adhésion de Staphylococcus epidermis (bactéries résidentes) à la surface de la peau. Les bactéries sont radio marquées en phase de croissance par incorporation de 3H-thymidine. Cette flore bactérienne est ensuite déposée dans chaque puits. Après une heure d'incubation à 20°C, les puits sont lavés trois fois avec du tampon phosphate salin (PBS) ce qui permet d'éliminer les bactéries libres. Le resvératrol est ensuite ajouté à 0,1 µM et 10 µM et incubé 1 heure à 20°C. A l'issue de cette incubation le contenu de chaque puits est récupéré et compté en scintillation liquide (bactéries désorbées). Les puits sont ensuite lavés avec une solution chaotropique qui permet d'éluer les bactéries adhérentes. Les solutions de lavages sont également compté en scintillation liquide (bactéries adhérentes). Un témoin positif (Fucogel® Acide (poly-[(α-1,3)-Fuc-(α-1,3)-Gal-(α-1,3)-galacturonique]) est inclus à l'étude comme référence.

The mark [1] stands for this setting: Staphylococcus, 1 h, read-out: Bactéries adhérentes.
Setting [2] is: Staphylococcus, read-out: inhibition de l'adhésion des bactéries.

`Oc1ccc(C=Cc2cc(O)cc(O)c2)cc1` [resvératrol, 3,4',5-trihydroxystilbène]: where the note is “0,1 µM and 10 µM”, the “dose dependence of the activity on adhesion of bacteria to human skin (in words)” value is listed as “dose dépendante”. Also, under setting [1], the activity at 0.1 µM is 71% and the activity at 10 µM worked out at 64%. Moreover, under setting [2], the inhibition – broadly, how much of the control response was suppressed – at 1 µM was determined as 29% and the inhibition at 10 µM came to 36%.
